Tests used:
Experiment in all cases: KinaseProfiler panel
Assay type in all cases: biochemical
Settings in all cases: activity remaining
[1] = target: PI3 Kinase (p110b/p85a)(h) (Homo sapiens (Human), UniProt P42338); set-up: dose or concentration left out as unconfirmed
GRK6(h) = GRK6(h) (Homo sapiens (Human), UniProt P43250); set-up: dose or concentration left out as unconfirmed
Itk(h) = Itk(h) (Homo sapiens (Human), UniProt Q08881); set-up: dose or concentration left out as unconfirmed
EphA8(h) = EphA8(h) (Homo sapiens (Human), UniProt P29322); set-up: dose or concentration left out as unconfirmed
WNK1(h) = WNK1(h) (Homo sapiens (Human), UniProt Q9H4A3); set-up: dose or concentration left out as unconfirmed
CK2α2(h) = CK2α2(h) (Homo sapiens (Human), UniProt P19784); set-up: dose or concentration left out as unconfirmed
Rsk2(h) = Rsk2(h) (Homo sapiens (Human), UniProt P51812); set-up: dose or concentration left out as unconfirmed
Pyk2(h) = Pyk2(h) (Homo sapiens (Human), UniProt Q14289); set-up: dose or concentration left out as unconfirmed
PEK(h) = PEK(h) (Homo sapiens (Human), UniProt Q9NZJ5); set-up: dose or concentration left out as unconfirmed
MEKK3(h) = MEKK3(h) (Homo sapiens (Human), UniProt Q99759); set-up: dose or concentration left out as unconfirmed
Pim-2(h) = Pim-2(h) (Homo sapiens (Human), UniProt Q9P1W9); set-up: dose or concentration left out as unconfirmed
HPK1(h) = HPK1(h) (Homo sapiens (Human), UniProt Q92918); set-up: dose or concentration left out as unconfirmed
IR(h), activated = IR(h), activated (Homo sapiens (Human), UniProt P06213); set-up: dose or concentration left out as unconfirmed
JNK3(h) = JNK3(h) (Homo sapiens (Human), UniProt P53779); set-up: dose or concentration left out as unconfirmed
CaMKIγ(h) = CaMKIγ(h) (Homo sapiens (Human), UniProt Q96NX5); set-up: dose or concentration left out as unconfirmed
CaMKK2(h) = CaMKK2(h) (Homo sapiens (Human), UniProt Q96RR4); set-up: dose or concentration left out as unconfirmed
NDR1(h) = NDR1(h) (Homo sapiens (Human), UniProt Q15208); set-up: dose or concentration left out as unconfirmed
MST3(h) = MST3(h) (Homo sapiens (Human), UniProt Q9Y6E0); set-up: dose or concentration left out as unconfirmed
CaMKIIβ(h) = CaMKIIβ(h) (Homo sapiens (Human), UniProt Q13554); set-up: dose or concentration left out as unconfirmed
ASK1(h) = ASK1(h) (Homo sapiens (Human), UniProt Q99683); set-up: dose or concentration left out as unconfirmed
PTK5(h) = PTK5(h) (Homo sapiens (Human), UniProt P42685); set-up: dose or concentration left out as unconfirmed
BMPR2(h) = BMPR2(h) (Homo sapiens (Human), UniProt Q13873); set-up: dose or concentration left out as unconfirmed
STK33(h) = STK33(h) (Homo sapiens (Human), UniProt Q9BYT3); set-up: dose or concentration left out as unconfirmed
FGFR4(h) = FGFR4(h) (Homo sapiens (Human), UniProt P22455); set-up: dose or concentration left out as unconfirmed
Fyn(h) = Fyn(h) (Homo sapiens (Human), UniProt P06241); set-up: dose or concentration left out as unconfirmed
TAK1(h) = TAK1(h) (Homo sapiens (Human), UniProt O43318); set-up: dose or concentration left out as unconfirmed
CDK3/cyclinE(h) = CDK3/cyclinE(h) (Homo sapiens (Human), UniProt Q00526); set-up: dose or concentration left out as unconfirmed
CaMKIδ(h) = CaMKIδ(h) (Homo sapiens (Human), UniProt Q8IU85); set-up: dose or concentration left out as unconfirmed
PAK6(h) = PAK6(h) (Homo sapiens (Human), UniProt Q9NQU5); set-up: dose or concentration left out as unconfirmed
NLK(h) = NLK(h) (Homo sapiens (Human), UniProt Q9UBE8)
Plk3(h) = Plk3(h) (Homo sapiens (Human), UniProt Q9H4B4); set-up: dose or concentration left out as unconfirmed
SAPK4(h) = SAPK4(h) (Homo sapiens (Human), UniProt O15264); set-up: dose or concentration left out as unconfirmed
LIMK1(h) = LIMK1(h) (Homo sapiens (Human), UniProt P53667); set-up: dose or concentration left out as unconfirmed

CaMKIIβ(h), sequence (Q13554 whole entry): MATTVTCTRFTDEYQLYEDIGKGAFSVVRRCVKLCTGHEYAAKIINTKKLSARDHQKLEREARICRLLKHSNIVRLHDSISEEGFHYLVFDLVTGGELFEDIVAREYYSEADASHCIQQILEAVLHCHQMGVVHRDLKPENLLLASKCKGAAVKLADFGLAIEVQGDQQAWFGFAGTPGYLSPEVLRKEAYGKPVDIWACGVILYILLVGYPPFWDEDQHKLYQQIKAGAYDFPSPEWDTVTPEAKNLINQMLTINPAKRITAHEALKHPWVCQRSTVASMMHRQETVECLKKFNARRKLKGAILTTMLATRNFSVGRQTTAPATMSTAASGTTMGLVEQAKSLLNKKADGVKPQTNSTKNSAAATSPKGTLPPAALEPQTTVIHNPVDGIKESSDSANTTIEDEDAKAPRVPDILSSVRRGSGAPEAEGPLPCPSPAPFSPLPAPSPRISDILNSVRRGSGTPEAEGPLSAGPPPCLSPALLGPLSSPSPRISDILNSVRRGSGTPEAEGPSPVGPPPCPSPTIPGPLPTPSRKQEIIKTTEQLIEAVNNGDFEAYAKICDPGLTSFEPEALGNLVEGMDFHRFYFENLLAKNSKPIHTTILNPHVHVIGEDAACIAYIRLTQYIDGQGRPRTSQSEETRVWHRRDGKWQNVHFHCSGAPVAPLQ
EphA8(h), sequence (P29322 28-1005): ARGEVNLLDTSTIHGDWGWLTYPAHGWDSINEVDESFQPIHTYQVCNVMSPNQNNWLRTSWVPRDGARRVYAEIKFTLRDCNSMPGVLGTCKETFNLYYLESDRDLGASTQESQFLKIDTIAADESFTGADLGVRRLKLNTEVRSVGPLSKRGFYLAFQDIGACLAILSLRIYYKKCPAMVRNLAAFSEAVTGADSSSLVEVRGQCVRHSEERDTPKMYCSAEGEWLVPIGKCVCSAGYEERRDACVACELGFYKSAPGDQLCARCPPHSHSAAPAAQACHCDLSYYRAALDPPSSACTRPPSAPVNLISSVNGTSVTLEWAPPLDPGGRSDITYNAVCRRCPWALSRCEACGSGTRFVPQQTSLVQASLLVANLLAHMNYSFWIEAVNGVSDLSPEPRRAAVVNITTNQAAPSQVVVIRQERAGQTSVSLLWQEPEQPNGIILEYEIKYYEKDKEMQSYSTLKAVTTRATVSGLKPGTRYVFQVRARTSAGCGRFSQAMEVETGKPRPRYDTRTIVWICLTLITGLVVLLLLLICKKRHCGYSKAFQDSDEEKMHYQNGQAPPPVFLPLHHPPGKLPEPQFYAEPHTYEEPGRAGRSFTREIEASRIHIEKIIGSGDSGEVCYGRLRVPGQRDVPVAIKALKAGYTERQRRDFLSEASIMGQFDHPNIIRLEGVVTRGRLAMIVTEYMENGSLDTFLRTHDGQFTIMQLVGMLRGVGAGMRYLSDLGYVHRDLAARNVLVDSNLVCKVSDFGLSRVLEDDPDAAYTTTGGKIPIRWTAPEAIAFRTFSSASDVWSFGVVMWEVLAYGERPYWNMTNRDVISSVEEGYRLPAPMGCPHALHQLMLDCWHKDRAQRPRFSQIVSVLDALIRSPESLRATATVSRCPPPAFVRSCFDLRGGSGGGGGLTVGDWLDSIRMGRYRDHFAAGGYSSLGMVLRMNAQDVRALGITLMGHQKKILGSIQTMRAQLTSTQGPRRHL
JNK3(h), sequence (P53779 whole entry): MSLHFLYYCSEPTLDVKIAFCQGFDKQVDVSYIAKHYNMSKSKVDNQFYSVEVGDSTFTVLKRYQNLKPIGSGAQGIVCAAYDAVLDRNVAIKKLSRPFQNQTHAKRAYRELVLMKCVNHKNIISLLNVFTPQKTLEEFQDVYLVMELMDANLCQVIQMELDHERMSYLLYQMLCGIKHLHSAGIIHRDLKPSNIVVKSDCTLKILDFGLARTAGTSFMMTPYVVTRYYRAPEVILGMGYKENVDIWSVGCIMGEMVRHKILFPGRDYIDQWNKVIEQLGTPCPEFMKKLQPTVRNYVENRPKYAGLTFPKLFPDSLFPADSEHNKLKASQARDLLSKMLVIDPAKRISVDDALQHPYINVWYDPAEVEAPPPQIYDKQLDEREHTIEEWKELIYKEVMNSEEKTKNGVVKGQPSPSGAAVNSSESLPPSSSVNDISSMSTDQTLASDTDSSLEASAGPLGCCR
WNK1(h), sequence (Q9H4A3 whole entry): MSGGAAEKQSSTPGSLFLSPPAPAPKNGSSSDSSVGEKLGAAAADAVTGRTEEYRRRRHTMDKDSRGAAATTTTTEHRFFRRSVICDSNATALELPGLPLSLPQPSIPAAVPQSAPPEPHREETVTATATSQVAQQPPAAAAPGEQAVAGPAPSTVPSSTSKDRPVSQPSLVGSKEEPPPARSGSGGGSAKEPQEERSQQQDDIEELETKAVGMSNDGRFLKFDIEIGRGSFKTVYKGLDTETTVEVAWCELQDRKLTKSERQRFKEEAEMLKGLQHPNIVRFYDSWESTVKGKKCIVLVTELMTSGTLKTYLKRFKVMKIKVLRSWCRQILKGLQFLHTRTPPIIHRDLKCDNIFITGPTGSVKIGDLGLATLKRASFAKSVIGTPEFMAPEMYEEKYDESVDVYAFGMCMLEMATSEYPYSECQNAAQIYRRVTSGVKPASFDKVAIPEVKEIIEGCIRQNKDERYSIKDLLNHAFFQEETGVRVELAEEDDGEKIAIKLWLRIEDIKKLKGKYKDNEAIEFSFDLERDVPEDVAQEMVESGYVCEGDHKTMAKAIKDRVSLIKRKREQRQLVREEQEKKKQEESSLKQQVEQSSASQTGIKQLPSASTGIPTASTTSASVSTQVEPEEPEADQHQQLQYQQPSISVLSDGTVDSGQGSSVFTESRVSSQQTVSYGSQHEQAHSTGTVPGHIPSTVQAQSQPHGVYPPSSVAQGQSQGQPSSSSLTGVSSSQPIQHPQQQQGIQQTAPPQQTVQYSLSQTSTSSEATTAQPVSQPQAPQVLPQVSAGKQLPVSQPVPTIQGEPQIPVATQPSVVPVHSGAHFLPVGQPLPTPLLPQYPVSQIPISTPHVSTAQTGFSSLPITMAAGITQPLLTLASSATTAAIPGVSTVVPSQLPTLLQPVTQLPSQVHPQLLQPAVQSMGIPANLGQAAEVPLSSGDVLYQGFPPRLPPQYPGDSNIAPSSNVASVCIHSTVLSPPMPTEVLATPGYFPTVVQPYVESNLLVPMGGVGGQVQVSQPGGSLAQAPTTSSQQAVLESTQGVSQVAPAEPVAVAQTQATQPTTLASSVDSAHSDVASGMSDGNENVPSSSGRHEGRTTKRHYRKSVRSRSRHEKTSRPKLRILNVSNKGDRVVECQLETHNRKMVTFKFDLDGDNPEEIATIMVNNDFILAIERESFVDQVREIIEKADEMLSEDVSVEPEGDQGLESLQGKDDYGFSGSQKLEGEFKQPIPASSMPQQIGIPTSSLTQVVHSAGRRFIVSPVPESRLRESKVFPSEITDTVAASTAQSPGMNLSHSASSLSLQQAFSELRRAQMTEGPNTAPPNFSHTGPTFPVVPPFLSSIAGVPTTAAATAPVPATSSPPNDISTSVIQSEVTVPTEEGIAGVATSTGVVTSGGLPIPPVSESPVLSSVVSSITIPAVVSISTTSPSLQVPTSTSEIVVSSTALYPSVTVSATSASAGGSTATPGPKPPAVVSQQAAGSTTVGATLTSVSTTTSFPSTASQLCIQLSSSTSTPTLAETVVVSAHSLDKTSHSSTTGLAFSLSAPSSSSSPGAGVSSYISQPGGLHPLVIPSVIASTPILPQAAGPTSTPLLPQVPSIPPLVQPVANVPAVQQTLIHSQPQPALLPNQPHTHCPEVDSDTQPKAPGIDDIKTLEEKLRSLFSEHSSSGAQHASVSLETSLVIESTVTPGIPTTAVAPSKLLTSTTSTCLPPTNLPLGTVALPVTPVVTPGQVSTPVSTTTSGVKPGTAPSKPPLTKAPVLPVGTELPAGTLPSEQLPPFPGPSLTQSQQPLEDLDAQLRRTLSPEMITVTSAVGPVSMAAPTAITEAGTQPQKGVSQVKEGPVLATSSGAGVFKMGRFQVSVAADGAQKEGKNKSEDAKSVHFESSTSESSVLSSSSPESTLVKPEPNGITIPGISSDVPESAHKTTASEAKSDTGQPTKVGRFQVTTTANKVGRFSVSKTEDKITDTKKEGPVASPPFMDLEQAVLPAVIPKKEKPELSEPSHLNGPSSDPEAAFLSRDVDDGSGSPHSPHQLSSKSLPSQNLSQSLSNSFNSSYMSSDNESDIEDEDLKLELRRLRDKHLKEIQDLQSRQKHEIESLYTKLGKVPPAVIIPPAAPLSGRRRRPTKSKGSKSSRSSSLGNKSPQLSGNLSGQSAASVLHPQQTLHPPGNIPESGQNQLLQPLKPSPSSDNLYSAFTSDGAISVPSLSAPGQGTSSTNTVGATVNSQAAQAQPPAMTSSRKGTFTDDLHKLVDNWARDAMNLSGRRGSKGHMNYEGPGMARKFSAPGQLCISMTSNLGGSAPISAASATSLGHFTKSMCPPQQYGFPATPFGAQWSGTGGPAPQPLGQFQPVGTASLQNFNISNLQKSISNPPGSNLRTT
TAK1(h), sequence (O43318 1-303): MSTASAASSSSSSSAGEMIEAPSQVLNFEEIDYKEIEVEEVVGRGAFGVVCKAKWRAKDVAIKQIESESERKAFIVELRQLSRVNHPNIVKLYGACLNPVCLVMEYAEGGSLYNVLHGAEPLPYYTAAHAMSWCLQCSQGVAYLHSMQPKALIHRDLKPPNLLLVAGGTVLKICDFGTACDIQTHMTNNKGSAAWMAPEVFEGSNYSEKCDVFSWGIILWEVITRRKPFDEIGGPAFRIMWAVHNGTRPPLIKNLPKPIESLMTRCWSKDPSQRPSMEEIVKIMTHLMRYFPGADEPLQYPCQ
Pim-2(h), sequence (Q9P1W9 whole entry): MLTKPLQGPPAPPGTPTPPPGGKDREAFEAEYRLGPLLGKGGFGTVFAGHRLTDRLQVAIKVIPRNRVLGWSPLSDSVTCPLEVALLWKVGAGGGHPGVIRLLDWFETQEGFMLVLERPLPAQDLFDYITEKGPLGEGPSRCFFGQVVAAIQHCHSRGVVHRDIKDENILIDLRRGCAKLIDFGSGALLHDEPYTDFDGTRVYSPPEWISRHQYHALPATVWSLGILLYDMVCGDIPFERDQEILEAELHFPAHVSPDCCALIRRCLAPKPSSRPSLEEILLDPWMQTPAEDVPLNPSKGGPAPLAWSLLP

Cc1cc2c(-c3ccc(NC(=O)[C@H](N)CC(C)(C)C)cc3C)ccnc2[nH]1 [Compound F-90, (2R)-2-Amino-4,4-dimethyl-N-[3-methyl-4-(2-methyl-1H-pyrrolo[2,3-b]pyridin-4-yl)phenyl]pentanamide]
% Activity [1]: 102%
% Activity (GRK6(h)): 95%
% Activity (Itk(h)): 86%
% Activity (EphA8(h)): 115%
% Activity (WNK1(h)): 109%
% Activity (CK2α2(h)): 115%
% Activity (Rsk2(h)): 88%
% Activity (Pyk2(h)): 76%
% Activity (PEK(h)): 91%
% Activity (MEKK3(h)): 107%
% Activity (Pim-2(h)): 117%
% Activity (HPK1(h)): 73%
% Activity (IR(h), activated): 92%
% Activity (JNK3(h)): 88%
% Activity (CaMKIγ(h)): 110%
% Activity (CaMKK2(h)): 96%
% Activity (NDR1(h)): 100%
% Activity (MST3(h)): 85%
% Activity (CaMKIIβ(h)): 93%
% Activity (ASK1(h)): 100%
% Activity (PTK5(h)): 90%
% Activity (BMPR2(h)): 85%
% Activity (STK33(h)): 98%
% Activity (FGFR4(h)): 114%
% Activity (Fyn(h)): 100%
% Activity (TAK1(h)): 91%
% Activity (CDK3/cyclinE(h)): 102%
% Activity (CaMKIδ(h)): 89%
% Activity (PAK6(h)): 101%
% Activity (NLK(h)): 98%
% Activity (Plk3(h)): 100%
% Activity (SAPK4(h)): 94%
% Activity (LIMK1(h)): 70%
